According to patent publication US20090069237A1, “METHODS AND COMPOSITIONS FOR TREATING CONDITIONS” (priority 2007, published 2009):
Peptide text beside a SMILES is read from it.

Experiments:
[1] = tested on: Sauromatum guttatum appendix; test: Heat production by Sauromatum guttatum appendix sections, thermocouple recording; conditions: second experiment, up to 50 μM, data not shown
Experimental: In one example, using Sauromatum guttatum as the experimental module, on the day of inflorescence-opening, the Sauromatum appendix (a 20-40 cm-long, slender organ) becomes warm reaching a 32° C. temperature (Skubatz et al., 1991, Plant Physiol. 95:1084-1088). The heat generated by the appendix is generated by the mitochondria. This mitochondrial activity can be triggered by the addition of phenolic compounds, including but not limited to, salicylic acid, aspirin, and 2,6-dihydroxybenzoic acid. Test agents can be applied to the plant and the plant's temperature may be monitored in vivo.
FIG. 4 illustrates modulation of heat generated by aspirin (ASA) in Sauromatum guttatum appendix in the presence of various opioid peptides and the Alzheimer's peptide, Aβ 1-42. One day before heat-production, sections of the appendix were placed in different aqueous solutions containing ASA with or without an opioid peptide. […] Temperature was recorded with thermocouples attached to the section every 5 min. […]
FIG. 5 illustrates modulation of heat generated by salicylic acid (SA) in the presence of human opioid peptides (β-Endorphin, SEQ ID NO: 19 and Neuropeptide AF, SEQ ID NO: 44) and, the Alzheimer's peptide, Aβ 1-42, SEQ ID NO: 49, and, a plant virulent bacterial pathogen (Pst DC3000). […] Temperature was recorded with thermocouples attached to the sections every 5 min. […]

[2] = type: physicochemical
Experimental: The test article was SEQ ID NO: 1, a white powder, which was delivered in 0.9% saline. The test article formulations were prepared on the day of study and kept at room temperature until dosing. 100 mg/kg at 1 mL/kg=100 mg/mL 1.4 mL of saline added to 141.5 mg of test article, soluble.

[3] = rat, in vivo
From the text: Pain is basically managed by two classes of drugs.

[4] = tested on: Pseudomonas syringae pv tomato, DC3000; test: Arabidopsis inoculated with virulent pathogen Pst DC3000, disease symptoms; type: in vivo, Arabidopsis ecotype Columbia (Col-0); conditions: 20 μl salicylic acid 1 mM and 20 μl SEQ ID NO: 15 applied together to the leaves
Experimental: Seeds of Arabidopsis ecotype Columbia (Col-0) were planted in potting soil. Plants were cultivated in a growth chamber with 10-h d (200 μmol m^−2s^−1 at 22° C.) and 14-h night (18° C.) cycles and 80% RH. Once a week plants were supplied with water and modified one-half strength Hoagland nutrient solution: 2 mM KNO 5 mM Ca(NO3)2 and trace elements, pH 7.
A virulent plant pathogen, Pst Pseudomonas syringae pv tomato, DC3000 was grown at 28° C. on King's medium B containing 40 mg/L tetracycline. Plants were inoculated with 1×10^7 cfu/ml of the pathogen in 0.01% Silwet L77 (v/v) (a surfactant) and distilled water 5 weeks after sowing. The bacterial suspension or a control solution (0.01% Silwet L77 in water) was then sprayed on the plant once.
Disease symptoms in Arabidopsis are water-soaked, spreading lesions, sometimes surrounded by chlorotic margin that eventually lead to yield loss and plant death.
To test the efficacy of SEQ ID NO: 15, some healthy and some disease plants were sprayed with salicylic acid in 0.01%. Silwet L77; some healthy and some disease plants were sprayed with SEQ ID NO: 15 in 0.01%. Silwet L77, and some healthy and some disease plants were sprayed with salicylic acid in combination with SEQ ID NO: 15 in 0.01%. Silwet L77. A control group of some healthy and some disease plants were sprayed with water in 0.01%. Silwet L77. […]

With FLPSEFGVDVDR [SEQ ID NO: 2] the “heat generation by the peptide” value [1] was “did not generate heat”.
In the case of `CC(C)C[C@H](NC(=O)[C@@H](N)Cc1ccccc1)C(=O)N1CCC[C@H]1C(=O)N[C@@H](CO)C(=O)O` [SEQ ID NO: 1, Phe-Leu-Pro-Ser] (H-FLPS-OH; N-terminus and C-terminus assumed), the solubility in saline [2] was “soluble”, the “effect on brain function” value [3] was “does not adversely affect brain function” and the feeding behavior [3] was “did not invoke an abnormal feeding behavior”.
For YGGFL [SEQ ID NO: 15], the “systemic resistance to the virulent bacteria” value [4] was “enough to trigger systemic resistance”.
With `O=C(O)c1ccccc1O` [salicylic acid] the “systemic resistance to the virulent bacteria” value [4] was “enough to trigger systemic resistance”.
